Calls of active or inactive are those of the source. The rule behind the calls is not given here.

Here are results for five molecules from ChEMBL document CHEMBL3822445, “Histone demethylating agents as potential S-adenosyl-l-methionine-competitors” (Medchemcomm, 2016).

System in the first experiment: not listed separately
The experiment in a line: Antiproliferative activity against human Ovarian cancer LA#83 cells assessed as cell survival at 20 uM after 72 hrs by MTT assay relative to control. Particulars: read-out: Survival. The format is functional. In general terms: Tetrazolium dyes change colour on reduction, which living cells bring about.
Turning to `N[C@@H]1C[C@H]1c1ccccc1.N[C@H]1C[C@@H]1c1ccccc1` [TRANYLCYPROMINE], the viability at 20 µM was 77.5%.

As to `CCN(CC)CCNC(=O)c1c(C)[nH]c(/C=C2\C(=O)Nc3ccc(F)cc32)c1C` [SUNITINIB], the viability at 20 µM stood at 9.8%.

Consider `Cc1nc(Nc2ncc(C(=O)Nc3c(C)cccc3Cl)s2)cc(N2CCN(CCO)CC2)n1` [DASATINIB], for which the viability at 20 µM came to 38.3%.

For the molecule `CN1C(=O)[C@@]23C[C@]4([C@]56C[C@@]78SS[C@@](CO)(C(=O)N7[C@H]5Nc5ccccc56)N(C)C8=O)c5ccccc5N[C@@H]4N2C(=O)[C@]1(CO)SS3` [CHAETOCIN], the viability at 20 µM is -3.25%.

On to `C#CCN(C)Cc1ccccc1` [PARGYLINE], for which the viability at 20 µM came to 77.7%.

System in another experiment: not listed separately
Description: Antiproliferative activity against human Ovarian cancer LA#110 cells assessed as cell survival at 20 uM after 72 hrs by MTT assay relative to control. The format is functional. Particulars: read-out: Survival.
`N[C@@H]1C[C@H]1c1ccccc1.N[C@H]1C[C@@H]1c1ccccc1` [TRANYLCYPROMINE]: the viability at 20 µM came to 60.6%.

Consider `CCN(CC)CCNC(=O)c1c(C)[nH]c(/C=C2\C(=O)Nc3ccc(F)cc32)c1C` [SUNITINIB], for which the viability at 20 µM is 2.6%.

For the molecule `Cc1nc(Nc2ncc(C(=O)Nc3c(C)cccc3Cl)s2)cc(N2CCN(CCO)CC2)n1` [DASATINIB], the viability at 20 µM came to 20.5%.

As for `CN1C(=O)[C@@]23C[C@]4([C@]56C[C@@]78SS[C@@](CO)(C(=O)N7[C@H]5Nc5ccccc56)N(C)C8=O)c5ccccc5N[C@@H]4N2C(=O)[C@]1(CO)SS3` [CHAETOCIN], the viability at 20 µM is -2.63%.

As to `C#CCN(C)Cc1ccccc1` [PARGYLINE], the viability at 20 µM amounted to 85%.

System in a further experiment: not listed separately
The experiment in a line: Antiproliferative activity against human Ovarian cancer DC#110 cells assessed as cell survival at 20 uM after 72 hrs by MTT assay relative to control. In kind it is functional. Particulars: read-out: Survival.
Regarding `N[C@@H]1C[C@H]1c1ccccc1.N[C@H]1C[C@@H]1c1ccccc1` [TRANYLCYPROMINE], the viability at 20 µM amounted to 93.6%.

For the molecule `CCN(CC)CCNC(=O)c1c(C)[nH]c(/C=C2\C(=O)Nc3ccc(F)cc32)c1C` [SUNITINIB], the viability at 20 µM was found to be 54.2%.

With `Cc1nc(Nc2ncc(C(=O)Nc3c(C)cccc3Cl)s2)cc(N2CCN(CCO)CC2)n1` [DASATINIB], the viability at 20 µM amounted to 58.7%.

Turning to `CN1C(=O)[C@@]23C[C@]4([C@]56C[C@@]78SS[C@@](CO)(C(=O)N7[C@H]5Nc5ccccc56)N(C)C8=O)c5ccccc5N[C@@H]4N2C(=O)[C@]1(CO)SS3` [CHAETOCIN], the viability at 20 µM was -4.22%.

With `C#CCN(C)Cc1ccccc1` [PARGYLINE], the viability at 20 µM is 59.1%.

System in the next experiment: not listed separately
The experiment in a line: Antiproliferative activity against human Ovarian cancer DC#83 cells assessed as cell survival at 20 uM after 72 hrs by MTT assay relative to control. The format is functional. Particulars: read-out: Survival.
Regarding `N[C@@H]1C[C@H]1c1ccccc1.N[C@H]1C[C@@H]1c1ccccc1` [TRANYLCYPROMINE], the viability at 20 µM amounted to 102%.

Consider `CCN(CC)CCNC(=O)c1c(C)[nH]c(/C=C2\C(=O)Nc3ccc(F)cc32)c1C` [SUNITINIB], for which the viability at 20 µM was found to be 73.7%.

As to `Cc1nc(Nc2ncc(C(=O)Nc3c(C)cccc3Cl)s2)cc(N2CCN(CCO)CC2)n1` [DASATINIB], the viability at 20 µM stood at 73.1%.

`CN1C(=O)[C@@]23C[C@]4([C@]56C[C@@]78SS[C@@](CO)(C(=O)N7[C@H]5Nc5ccccc56)N(C)C8=O)c5ccccc5N[C@@H]4N2C(=O)[C@]1(CO)SS3` [CHAETOCIN]: the viability at 20 µM was 67.8%.

`C#CCN(C)Cc1ccccc1` [PARGYLINE]: the viability at 20 µM stood at 96.7%.

The subject of a further experiment is MCF7. The experiment in a line: Inhibition of DNA methylation in human MCF7 cells assessed as decrease in methylation of RARbeta DNA by qPCR method. The format is cell-based.
Details: not given
On the technique in general: Quantitative PCR measures a nucleic acid by following its amplification.
On to `CN1C(=O)[C@@]23C[C@]4([C@]56C[C@@]78SS[C@@](CO)(C(=O)N7[C@H]5Nc5ccccc56)N(C)C8=O)c5ccccc5N[C@@H]4N2C(=O)[C@]1(CO)SS3` [CHAETOCIN], for which the inhibition entry was “Active”.
